The target of one data set is T1, RARΓ (Homo sapiens, UniProt P13631).
T1 construct: made in house; host or cells: Baculovirus expression (insect cell extract)
T1 sequence (P13631 1-454): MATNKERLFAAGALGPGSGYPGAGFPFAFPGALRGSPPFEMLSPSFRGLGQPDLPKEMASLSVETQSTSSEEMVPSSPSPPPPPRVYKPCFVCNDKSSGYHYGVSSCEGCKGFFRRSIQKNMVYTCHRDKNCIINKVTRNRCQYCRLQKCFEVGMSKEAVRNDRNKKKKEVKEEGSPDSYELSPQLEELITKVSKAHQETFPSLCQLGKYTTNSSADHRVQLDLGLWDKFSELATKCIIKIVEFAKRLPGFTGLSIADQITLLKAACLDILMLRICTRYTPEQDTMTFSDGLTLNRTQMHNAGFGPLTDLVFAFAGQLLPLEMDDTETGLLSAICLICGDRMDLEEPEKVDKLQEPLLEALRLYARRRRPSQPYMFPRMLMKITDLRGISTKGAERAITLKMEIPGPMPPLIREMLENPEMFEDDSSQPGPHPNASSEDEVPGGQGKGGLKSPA
The data set is described as follows: Ligand binding assay, RARΓ. As to the method:
(§1) All binding assays were performed in a similar fashion. All six receptor types were derived from the expressed receptor type (RARα, β, Γ and RXRα, β, Γ) expressed in Baculovirus. Stock solutions of all compounds were prepared as 10 mM ethanol solutions and serial dilutions carried out into 1:1 DMSO; ethanol. Assay buffers consisted of the following for all six receptor assays: 8% glycerol, 120 mM KCl 8 mM Tris, 5 mM CHAPS 4 mM DTT and 0.24 mM PMSF, pH-7.4@ room temperature.
(§2) All receptor binding assays were performed in the same manner. The final assay volume was 250 μl and contained from 10-40 μg of extract protein depending on receptor being assayed along with 5 nM of [^3H] all-trans retinoic acid or 10 nM [^3H] 9-cis retinoic acid and varying concentrations of competing ligand at concentrations that ranged from 0-10^−5 M. The assays were formatted for a 96 well minitube system. Incubations were carried out at 4° C. until equilibrium was achieved. Non-specific binding was defined as that binding remaining in the presence of 1000 nM of the appropriate unlabeled retinoic acid isomer. At the end of the incubation period, 50 μl of 6.25% hydroxyapitite was added in the appropriate wash buffer. The wash buffer consisted of 100 mM KCl, 10 mM Tris and either 5 mM CHAPS (RXRα, β, Γ) or 0.5% Triton X-100 (RARα, β, Γ). The mixture was vortexed and incubated for 10 minutes at 4° C., centrifuged and the supernatant removed. The hydroxyapitite was washed three more times with the appropriate wash buffer. The receptor-ligand complex was adsorbed by the hydroxyapitite. The amount of receptor-ligand complex was determined by liquid scintillation counting of hydroxyapitite pellet.
(§3) After correcting for non-specific binding, IC50 values were determined. […] The IC50 value was determined graphically from a loglogit plot of the data. The […] were determined by application of the Cheng-Prussof equation to the IC50 values, the labeled ligand concentration and the Kd of the labeled ligand.
(§4) The results of ligand binding assay are expressed in Kd numbers. (See Cheng et al. Biochemical Pharmacology Vol. 22 pp 3099-3108, expressly incorporated herein by reference.)

The next data set has as its target T2, RXRβ (Homo sapiens, UniProt P28702).
T2 construct: made in house; host or cells: Baculovirus expression (insect cell extract)
T2 sequence (P28702 1-533): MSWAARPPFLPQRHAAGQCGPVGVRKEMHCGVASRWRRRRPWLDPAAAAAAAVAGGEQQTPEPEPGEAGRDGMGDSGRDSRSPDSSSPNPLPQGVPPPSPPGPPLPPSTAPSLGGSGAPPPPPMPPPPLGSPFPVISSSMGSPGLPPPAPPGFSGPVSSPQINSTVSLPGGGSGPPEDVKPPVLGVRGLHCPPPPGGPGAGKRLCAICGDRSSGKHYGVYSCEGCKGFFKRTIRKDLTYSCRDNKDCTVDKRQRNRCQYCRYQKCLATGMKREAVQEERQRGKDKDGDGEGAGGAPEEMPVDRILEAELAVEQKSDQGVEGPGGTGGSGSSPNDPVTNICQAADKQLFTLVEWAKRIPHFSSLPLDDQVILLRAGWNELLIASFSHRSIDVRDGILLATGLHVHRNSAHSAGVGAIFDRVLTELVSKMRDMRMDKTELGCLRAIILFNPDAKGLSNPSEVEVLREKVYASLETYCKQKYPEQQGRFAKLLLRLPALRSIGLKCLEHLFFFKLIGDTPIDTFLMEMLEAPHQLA
In words: Ligand binding assay, RXRβ. As to the method: as §1, §2, §3, §4

Another data set addresses T3, RXRΓ (Homo sapiens, UniProt P48443).
T3 construct: made in house; host or cells: Baculovirus expression (insect cell extract)
T3 sequence (P48443 1-463): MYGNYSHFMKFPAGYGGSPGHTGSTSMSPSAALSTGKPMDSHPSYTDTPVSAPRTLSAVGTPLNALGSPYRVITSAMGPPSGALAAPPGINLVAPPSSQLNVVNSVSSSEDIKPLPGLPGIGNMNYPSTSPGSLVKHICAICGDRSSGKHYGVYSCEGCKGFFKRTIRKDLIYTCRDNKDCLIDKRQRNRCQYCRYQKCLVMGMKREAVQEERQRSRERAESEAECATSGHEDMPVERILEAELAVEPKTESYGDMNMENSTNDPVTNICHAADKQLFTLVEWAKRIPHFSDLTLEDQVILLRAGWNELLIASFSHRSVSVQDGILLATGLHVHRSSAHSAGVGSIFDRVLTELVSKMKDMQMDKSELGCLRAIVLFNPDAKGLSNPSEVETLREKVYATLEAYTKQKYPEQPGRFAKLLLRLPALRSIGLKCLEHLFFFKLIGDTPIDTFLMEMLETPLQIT
In words: Ligand binding assay, RXRΓ. As to the method:
as §1, §2, §3, §4

The target of another data set is T4, RXRα (Homo sapiens, UniProt P19793).
T4 construct: made in house; host or cells: Baculovirus expression (insect cell extract)
T4 sequence (P19793 1-462): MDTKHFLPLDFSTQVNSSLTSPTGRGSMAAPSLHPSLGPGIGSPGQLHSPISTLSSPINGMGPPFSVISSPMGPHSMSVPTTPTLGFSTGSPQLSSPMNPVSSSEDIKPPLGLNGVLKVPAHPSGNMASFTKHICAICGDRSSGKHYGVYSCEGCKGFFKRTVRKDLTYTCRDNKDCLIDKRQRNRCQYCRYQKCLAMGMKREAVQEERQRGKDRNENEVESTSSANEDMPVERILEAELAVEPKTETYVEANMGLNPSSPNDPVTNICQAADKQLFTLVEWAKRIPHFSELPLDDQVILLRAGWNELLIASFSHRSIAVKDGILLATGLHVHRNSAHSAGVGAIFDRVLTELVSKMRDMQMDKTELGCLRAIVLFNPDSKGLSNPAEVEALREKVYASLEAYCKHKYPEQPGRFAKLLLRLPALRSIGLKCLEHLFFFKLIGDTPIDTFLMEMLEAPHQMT
The data set is described as follows: Ligand binding assay, RXRα. As for the experimental part: as §1, §2, §3, §4

The target in another data set is T5, RARβ (Homo sapiens, UniProt P10826).
T5 construct: made in house; host or cells: Baculovirus expression (insect cell extract)
T5 sequence (P10826 1-455): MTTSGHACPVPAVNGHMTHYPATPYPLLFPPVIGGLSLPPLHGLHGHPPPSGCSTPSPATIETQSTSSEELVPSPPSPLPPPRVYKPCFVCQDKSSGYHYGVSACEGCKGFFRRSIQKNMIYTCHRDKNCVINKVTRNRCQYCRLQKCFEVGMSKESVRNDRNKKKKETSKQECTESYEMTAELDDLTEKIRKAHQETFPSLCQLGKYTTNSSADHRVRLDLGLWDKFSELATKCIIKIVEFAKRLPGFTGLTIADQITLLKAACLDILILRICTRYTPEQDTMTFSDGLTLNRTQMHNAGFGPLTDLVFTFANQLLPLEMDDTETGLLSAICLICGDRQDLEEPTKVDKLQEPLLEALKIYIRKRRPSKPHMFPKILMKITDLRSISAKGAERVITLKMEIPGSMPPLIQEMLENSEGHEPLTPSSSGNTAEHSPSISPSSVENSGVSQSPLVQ
The data set is described as follows: Ligand binding assay, RARβ. As to the method:
as §1, §2, §3, §4

Data set [1] deals with AML-193 cells (acute monocytic leukemia). In words: AML 193 cell culture assay (3H-thymidine incorporation). The class given is cell-based, human. Conditions: FIG. 3; low concentrations. As to the method:
All trans-retinoic acid (t-RA) (Sigma Chemicals Co., St. Louis, Mo.) was stored at −70° C. Prior to each experiment the compound was dissolved in 100% ethanol at 1 mM and diluted in culture medium immediately before use. All experiments were performed in subdued light. Controls were assayed using the same concentration of ethanol as present in the experimental plates and this concentration of diluent had no effect in either assay.
AML-193 was established from the blast cells classified as M5 Acute Monocyte Leukemia. The growth factor, […] (GM-CSF) was required to establish this cell line and growth factors are necessary for its continuous proliferation in chemically defined medium. AML-193 cells were grown and maintained in Iscove's modified Dulbecco's medium supplemented with 10% fetal bovine serum, glutamine and antibiotics with 5 μg/ml insulin (Sigma Chemical Co.) and 2 ng/ml rh GM-CSF (R and D Systems). The cells were diluted to a concentration of 3×10^5/ml twice a week.
AML-193 cells were plated in a 96 well round bottom microtiter plate (Costar) at a density of 1,000 cells/well. To appropriate wells, retinoid test compounds were added at the final concentrations indicated for a final volume of 150 μl/well. The plates were incubated for 96 hours at 37° C. in a humidified atmosphere of 5% CO2 in air. Subsequently, 1 μCi of [5′-^3H]-thymidine (Amersham, U.K., 43 Ci/mmol specific activity) in 25 μl culture medium was added to each well and the cells were incubated for an additional 6 hours.
The cell lines were then processed as follows: the cellular DNA was precipitated with 10% trichloroacetic acid onto glass fiber filter mats using a SKATRON multi-well cell harvester (Skatron Instruments, Sterling Va.). Radioactivity incorporated into DNA, as a direct measurement of cell growth, was measured by liquid scintillation counting. The numbers represent the mean disintegrations per minute of incorporated thymidine from triplicate wells±SEM.

Data set [2] deals with hairless mice [Crl:SKH1-hrBR]. The data set is described as follows: Eight day topical skin irritation assay in hairless mice. Conditions: 5 days.
Method: More particularly, skin irritation was measured on a semi-quantitative scale by the daily subjective evaluation of skin flaking and abrasions. A single number, the topical irritation score, summarizes the skin irritation induced in an animal during the course of an experiment. The topical irritation score is calculated as follows. The topical irritation score is the algebraic sum of a composite flaking score and a composite abrasion score. The composite scores range from 0-9 and 0-8 for flaking and abrasions, respectively, and take into account the maximum severity, the time of onset, and the average severity of the flaking and abrasions observed.
The severity of flaking is scored on a 5-point scale and the severity of abrasions is scored on a 4-point scale, with higher scores reflecting greater severity. The maximum severity component of the composite scores would be the highest daily severity score assigned to a given animal during the course of observation.
For the time of onset component of the composite score, a score ranging from 0 to 4 is assigned as follows:
The average severity component of the composite score is the sum of the daily flaking or abrasion scores divided by the number of observation days.
To calculate the composite flaking and abrasion scores, the average severity and time of onset scores are summed and divided by 2. The result is added to the maximal severity score. The composite flaking and abrasion scores are then summed to give the overall topical irritation score. Each animal receives a topical irritation score, and the values are expressed as the mean±SD of the individual scores of a group of animals. Values are rounded to the nearest integer.
Thus, female hairless mice [Crl:SKH1-hrBR] […] Treatments are applied to the dorsal skin in a total volume of 4 ml/kg (−0.1 ml).
Data set [3] concerns limb bud mesenchymal cells. In words: Chondrogenesis suppression bioassay (teratogenic potency). The class given is cell-based. Conditions: read-out: IC50 (50% inhibition of chondrogenesis); mouse limb bud spot cultures, 96 hours after plating; greater IC50 signifies lesser teratogenecity. As to the method:
High-density “spot” cultures of limb bud mesenchymal cells are used to compare the ability of various concentrations of test drugs to suppress chondrogenic differentiation as a bioassay. Forelimb buds of mouse embryos on day 12 of gestation (54±2 somites) are dissociated in a trypsin-EDTA solution, and the resultant single-cell suspension is plated as 20-μl spots (200,000 cells/spot) on plastic culture dishes. Retinoid concentrations ranging from 0.3 ng/ml to 3 μg/ml (1 nM−10 μM) are added to the culture medium (Eagle's MEM±10% fetal bovine serum, GIBCO) 24 hours after initial plating. Control cultures receive only the vehicle (ethanol, concentration≦1% by vol); Retinoic acid is used as a positive control in another set of cultures.
The cultures are terminated 96 hours after plating, at which time the medium is removed and the cells are fixed for 1 hour in 10% formalin containing 0.5% cetylpyridinium chloride. The cultures are rinsed in acetic acid and stained for 1 hour in 0.5% Alcian blue solution at pH 1.0, differentiated in 3% acetic acid, and then dehydrated in ethanol and scored for chondrogenesis under the microscope. An absence or reduction in the number of cartilage nodules in stained cultures as compared with control cultures is taken as a measure of suppression of chondrogenesis. The number of cartilage nodules stained in the whole spot, mean number of nodules, and standard deviations are calculated for four replicate cultures per treatment. […] The IC50 values are expressed in nanogram per mililiter (ng/ml) units. An IC50 value of greater concentration in this assay signifies lesser teratogenecity.

Data set [4] can be described thus: Weight loss in rats treated for 3 days. It counts as in vivo, rat. Conditions: rats, daily doses up to 90 μmol/kg/day in corn oil for 3 days; FIG. 6, FIG. 7. As for the experimental part:
Weight loss or gain that experimental animals experience upon administration of retinoid compounds is another test of the drug's toxicity, with significant weight loss at relatively low doses indicating a significant toxic side effect of the retinoid. In one experiment, groups of 5 rats were treated with varying doses (administered in corn oil) of a test retinoid for 3 days. The rats were euthanized 24 hours after the last dose.

≈ marks a conversion by molar mass, not a printed value.

The term Kd denotes the constant that tells how readily two partners part at equilibrium. On to `CC(C)(C)c1cc(C(=O)Nc2cc(F)c(C(=O)O)c(F)c2)cc(C(C)(C)C)n1` [Compound 50], for which the Kd at RARΓ, at RXRβ, on RXRΓ, on RXRα and at RARβ was above 1000 nM in each case.
A word on the IC50: it is the concentration that gives 50% inhibition. As for `CC1(C)CC(C)(C)c2cc(C(=O)Nc3ccc(C(=O)O)c(F)c3)cc(I)c2O1` [Compound 18], in data set [1], the “AML-193 cell proliferation at low concentrations” value is “reduce cell proliferation at low concentrations”. In addition, in data set [2] (dose 100 nanomol/25 g topical), the “Abrasion Score” value was 1, the “Body Weight % gain or (loss)” value was 8 ± 7%, the “Composite Score” value turned out to be 1 ± 1 and the “Flaking Score” value is recorded as 0. For the same compound, the “Mortality (out of 4)” value in data set [2] (dose 100 nanomol/25 g topical) was 0 out of 4. In [2] (dose 1000 nanomol/25 g topical), the “Abrasion Score” value came out at 1, the “Body Weight % gain or (loss)” value is reported as 4 ± 1%, the “Composite Score” value was determined as 2 ± 0 and the “Flaking Score” value was determined as 1. Moreover, the “Mortality (out of 4)” value in [2] (dose 1000 nanomol/25 g topical) is 0 out of 4. Besides, in data set [3], the IC50 is 0.22 µg/mL (≈ 0.442 µM). Also, the “weight loss compared to control” value in data set [4] is listed as “virtually no weight loss even in the high dose of 90 μmol/kg/day”.
Take “2-Fluoro-4-[(3′,5′-di-t-butyl)phenylcarbamoyl]benzoic acid [Compound 46]”: the Kd on RXRβ, at RXRΓ and on RXRα was above 1000 nM throughout.
Regarding `CC(C)(C)c1cc(C(=O)Nc2ccc(C(=O)O)c([N+](=O)[O-])c2)cc(C(C)(C)C)n1` [Compound 54], the Kd at RARΓ, at RXRβ, at RXRΓ, on RXRα and at RARβ was above 1000 nM each time.
`CC(C)(C)c1cc(C(=O)Nc2cc(F)c(C(=O)O)c(F)c2)cc(C(C)(C)C)c1` [Compound 52]: the Kd on RARΓ, at RXRβ, at RXRΓ, at RXRα and on RARβ was above 1000 nM each time.

The values are drawn from patent publication US6610744B2, “Methods of treatment with compounds having RARα receptor specific or selective activity” (Allergan, Inc., priority 1995, dated 2003).
